Like-named read-outs stand apart in the source and are kept apart here.

This experiment concerns the target T1, mouse Oat1 (mOat1; Oat1/Slc22a6) (Mus musculus, UniProt Q8VC69).
T1 sequence (Q8VC69 1-545): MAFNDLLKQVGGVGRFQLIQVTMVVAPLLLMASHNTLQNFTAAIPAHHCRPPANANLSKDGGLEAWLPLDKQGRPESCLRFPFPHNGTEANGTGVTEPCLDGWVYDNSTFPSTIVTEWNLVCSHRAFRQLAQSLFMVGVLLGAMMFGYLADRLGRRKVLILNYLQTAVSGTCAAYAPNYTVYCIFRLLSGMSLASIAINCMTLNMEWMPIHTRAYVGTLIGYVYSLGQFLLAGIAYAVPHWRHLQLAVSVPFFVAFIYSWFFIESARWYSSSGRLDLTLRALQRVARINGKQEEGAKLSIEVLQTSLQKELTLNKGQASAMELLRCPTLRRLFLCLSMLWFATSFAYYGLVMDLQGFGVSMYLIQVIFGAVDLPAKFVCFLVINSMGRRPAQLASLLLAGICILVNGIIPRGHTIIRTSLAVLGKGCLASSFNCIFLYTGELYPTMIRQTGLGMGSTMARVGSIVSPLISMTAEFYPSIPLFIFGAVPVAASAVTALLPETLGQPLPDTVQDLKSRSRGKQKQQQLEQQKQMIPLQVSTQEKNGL
As to the kind of experiment: inhibition of 6-carboxyfluorescein uptake, Xenopus oocytes. The format is cell-based.

One may read the IC50 as the midpoint of a concentration-inhibition curve. High values mean weaker potency, low ones greater potency. Where the note is “30 μM 6-carboxyfluorescein tracer, 1 h incubation”, `O=c1c2ncccc2[nH]c2c([N+](=O)[O-])c(O)c([N+](=O)[O-])c(O)c12` [CAS 5435-73-4] returned an IC50 of 22 µM.

Regarding `Nc1ccccc1C(=O)C[C@H](N)C(=O)O` [kynurenine], the IC50 was determined as 12 µM. This lies in the double-digit micromolar range.

`O=C(O)c1cc(O)c2cccc(O)c2n1` [xanthurenic acid]: the IC50 turned out to be 50 µM.

Values taken from paper PMC3201759 (Journal of proteome research, 2011).
